The values that follow come from patent US20240208984A1, “BIVALENT LIGANDS TO UNDERSTAND DIMERIZATION OF THE MU OPIOID RECEPTOR AND THE CHEMOKINE RECEPTOR CCR5 IN NEUROLOGICAL DISORDERS” (priority 2021, published 2024).

Assay [1] concerns HIV-1BaL Env-pseudotyped Luc-expressing virus. Briefly: HIV-1-Luc infection assay in PBMCs. The assay is classed as cell-based. The conditions noted are these: non-stimulated PBMCs; 1000 nM. An excerpt: Peripheral blood mononuclear cells (PBMCs) include large numbers of CCR5-expressing leukocytes and are susceptible to infection by R5-tropic HIV-1 strains.
Isolated human PBMCs were obtained commercially from the New York Blood Bank and exempt from Human Subjects criteria (NIH Exemption 4: website located at nih.gov/sites/default/files/exemption_infographic_v7_508c-3-21-19.pdf). The adult PBMCs are publicly available and no information or identifiers are provided so subjects cannot be identified. […] After 3 days in culture, supernatants were harvested, floating cells removed by centrifugation, HIV-1 p24 Ag measured by commercial ELISA (Zeptometrix), and viral aliquots stored at −80° C. […]
PBMCs were isolated from buffy coats of healthy blood donors by centrifugation in Ficoll gradient (MP Biomedicals). Viable cells, determined by Trypan blue exclusion, were stimulated, or not, for 2 days with 5 μg/mL PHA (Sigma). […]
After 2 days of infection, 100 μL of 2× Luciferase Substrate containing lysing buffer (BRIGHT-GLO™ Luciferase Assay System, Promega) were added per well, plate was agitated for 2 mins (700 rpm) and Luminescence was evaluated using a PHERASTAR® FS plate reader (BMG Labtech).

Assay [2] concerns HIV-1BaL. Briefly: Anti-HIV-1BaL activity (reverse transcriptase activity) in GHOST CCR5 cells. The following applies: read-out: Inhibition of HIV-1BaL EC50, RT activity, triplicate.
Method: This assay was run in GHOST-CCR5 cells using the CCR5-tropic viral strain HIV-1BaL.
100 μL of GHOST CCR5 cells at a density of 1×10^4 cells/well in 10% complete DMEM (10% FBS with 1% L-glutamine and 1% Penicillin/Streptomycin) media were plated in a 96-well flat bottom plate and incubated for 24 h at 37° C./5% CO2. Following the incubation, 100 μL of each compound at 6 concentrations were added in triplicate to both efficacy and toxicity plates followed by 100 μL of HIV-1BaL at a pre-determined titer to the plates being evaluated for efficacy and 50 μL of complete DMEM to the plates being evaluated for cytotoxicity. The cultures were incubated for 6 days at 37° C./5% CO2. Following the incubation, 50 μL of cell culture supernatant was removed from the wells of the efficacy plates for subsequent evaluation of virus content by reverse transcriptase activity assay. The toxicity plates being evaluated for cytotoxicity were stained with XTT.
RT activity (EC50 values) was measured using standard radioactivity incorporation polymerization assay. 1 μL of titrated thymidine triphosphate (TTP) at 1 Ci/mL was used per enzyme reaction. Poly rA and oligo dT were prepared at concentrations of 0.5 mg/mL and 1.7 Units/mL, respectively, from a stock solution which was kept at −20° C. The RT reaction buffer was prepared fresh and consists of 125 μL of 1M EGTA, 125 μL of dH2O, 125 μL of 20% Triton X-100, 50 μL of 1M Tris (pH 7.4), 50 μL of 1M DTT, and 40 μL of 1 M MgCl2. For each reaction, 1 μL of TTP, 4 μL of dH2O, 2.5 μL of rAdT and 2.5 μL of reaction buffer were mixed. 10 μL of this reaction mixture was placed in a round bottom microtiter plate with 15 μL of virus containing supernatant. The plate was incubated at 37° C. in a humidified incubator for 60-90 min. […] The dried filtermat was placed in a plastic sleeve and 4 mL of Opti-Fluor O (Perkin Elmer, catalog #1205-440) scintillation fluid was added to each sleeve. […] TC50 values for the tested compounds were derived by measuring the reduction of the tetrazolium dye XTT (2,3-bis(2-methoxy-4-nitro-5-sulfophenyl)-5-[(phenylamino)carbonyl]-2H-tetrazolium hydroxide). XTT in metabolically active cells is metabolized by the mitochondrial enzyme NADPH oxidase to a soluble formazan product. XTT solution was prepared as a stock of 1 mg/mL in RPMI-1640 without additives. Phenazine methosulfate (PMS) solution was prepared at 0.15 mg/mL in DPBS and stored in the dark at −20° C. XTT/PMS stock was prepared immediately before use by adding 40 μL of PMS per mL of XTT solution. […] The plates were sealed and inverted several times to mix the soluble formazan product and the plate was read at 450 nm (650 nm reference wavelength) with a Molecular Devices SPECTRAMAX® Plus 384 96 well format spectrophotometer.

The structures appear in SMILES notation.

By EC50 is commonly meant the concentration needed to bring the measured effect to its halfway point. For the compound `CC(C)c1nnc(CCNC(=O)COCC(=O)NCCCCCCCNC(=O)COCC(=O)NC2CC[C@@]3(O)[C@H]4Cc5ccc(O)c6c5[C@@]3(CCN4CC3CC3)[C@H]2O6)n1C1CC2CCC(C1)N2CC[C@H](NC(=O)C1CCC(F)(F)CC1)c1ccccc1` (some centres unmarked) [VZMC013], the “Inhibition of HIV-1-Luc infectivity” value in assay [1] was “nearly complete blockade”. Also, the EC50 in assay [2] turned out to be 93 nM.
